Measured values taken from patent US20260042753A1 (Merck Patent GmbH, priority 2019, published 2026).
Where two headings read alike, the source gives them in different places.

How the values were obtained:
c-Kit(V654A) = c-Kit(V654A) (Homo sapiens, UniProt P10721, V654A); test: c-Kit(V654A) assay; assay type: biochemical
How it was run: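 Radiometric filter-binding read-out: after 3% phosphoric acid stop, peptide-incorporated 33P on filtermat scintillation-counted. Enzyme: human c-Kit V654A, residues 544–end, N-terminal GST fusion.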

[1] = target: mutant cKIT (560-576 and V654A) in GIST430/654 cell line (Homo sapiens (Human), UniProt P10721, DEL560-576/V654A); test: Cellular testing of cKIT mutant inhibitors: phospho-Y307-cKIT Luminex assay in GIST430/654 cells; assay type: cell-based; details: read-out: GIST 430/654 IC50
How it was run: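 GIST430/654 cells carrying constitutively active cKIT (Δ560-576/V654A) were grown with 100 nM imatinib, then treated with serially diluted compound for 45 min. Lysates were captured on anti-total-cKIT Luminex beads overnight at 4 °C and probed for phospho-Y307-cKIT. IC50 was fitted from percent of 0.3% DMSO control.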

[2] = Table 1, cKIT autophosphorylation, compounds 45 min
[3] = Table 2, corresponding triazole derivatives

mutant cKIT (560-576 and V654A) in GIST430/654 cell line, sequence (P10721 other isoform, or with tags, fused parts or gaps V654A/del 1-25/del 560-576 limits assumed): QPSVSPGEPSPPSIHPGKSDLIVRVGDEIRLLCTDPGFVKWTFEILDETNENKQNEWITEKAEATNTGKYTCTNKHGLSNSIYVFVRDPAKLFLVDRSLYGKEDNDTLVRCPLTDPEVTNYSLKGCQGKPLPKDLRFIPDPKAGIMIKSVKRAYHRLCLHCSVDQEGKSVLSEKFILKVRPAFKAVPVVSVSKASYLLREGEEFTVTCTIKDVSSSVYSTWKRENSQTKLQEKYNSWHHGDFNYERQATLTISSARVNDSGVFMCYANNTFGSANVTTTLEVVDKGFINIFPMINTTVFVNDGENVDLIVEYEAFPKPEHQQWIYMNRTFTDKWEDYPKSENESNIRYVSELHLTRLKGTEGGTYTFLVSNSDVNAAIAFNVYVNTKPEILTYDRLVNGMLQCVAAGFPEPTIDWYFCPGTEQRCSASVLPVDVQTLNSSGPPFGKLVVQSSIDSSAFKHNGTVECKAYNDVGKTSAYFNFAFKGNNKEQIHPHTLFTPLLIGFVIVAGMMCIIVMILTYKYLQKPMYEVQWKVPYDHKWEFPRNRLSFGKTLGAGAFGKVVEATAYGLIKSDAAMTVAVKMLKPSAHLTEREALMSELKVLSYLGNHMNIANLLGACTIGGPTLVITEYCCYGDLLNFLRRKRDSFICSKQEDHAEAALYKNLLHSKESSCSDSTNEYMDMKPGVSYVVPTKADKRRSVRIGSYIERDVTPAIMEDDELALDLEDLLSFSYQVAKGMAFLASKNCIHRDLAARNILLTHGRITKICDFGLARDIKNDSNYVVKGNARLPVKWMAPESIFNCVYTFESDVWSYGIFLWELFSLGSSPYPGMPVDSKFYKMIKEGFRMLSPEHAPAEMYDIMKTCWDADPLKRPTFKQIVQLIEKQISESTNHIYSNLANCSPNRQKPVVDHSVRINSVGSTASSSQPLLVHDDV

COCCOc1cc2[nH]nc(-c3cc(-c4ccc(C(=O)N5CCN(C)CC5)cc4)no3)c2cc1Cl [A167, (4-{5-[5-chloro-6-(2-methoxy-ethoxy)-1H-indazol-3-yl]-isoxazol-3-yl}-phenyl)-(4-methyl-piperazin-1-yl)-methanone]
IC50 (c-Kit(V654A); Table 1, 200 μM ATP): 0.4 nM | IC50 [1, 2]: 74 nM

COCCOc1cc2[nH]nc(-c3cc(-c4ccc(N5CCOCC5=O)cc4)no3)c2cc1F [A139, 4-(4-{5-[5-fluoro-6-(2-methoxyethoxy)-1H-indazol-3-yl]-1,2-oxazol-3-yl}phenyl)morpholin-3-one]
IC50 (c-Kit(V654A); Table 1, 200 μM ATP): 1.2 nM | IC50 [1, 2]: 68 nM

COCCOc1cc2[nH]nc(-c3cc(-c4ccc(C(=O)N5CC(c6ccccn6)C5)cc4)no3)c2cc1F [A149, 5-fluoro-6-(2-methoxyethoxy)-3-(3-{4-[3-(pyridin-2-yl)azetidine-1-carbonyl]phenyl}-1,2-oxazol-5-yl)-1H-indazole]
IC50 (c-Kit(V654A); Table 1, 200 μM ATP): 0.69 nM | IC50 [1, 2]: 46 nM

COCCOc1cc2[nH]nc(-c3cc(-c4ccc(C(=O)N(C)CCS(C)(=O)=O)cc4)no3)c2cc1F [A150, 4-{5-[5-fluoro-6-(2-methoxyethoxy)-1H-indazol-3-yl]-1,2-oxazol-3-yl}-N-(2-methanesulfonylethyl)-N-methylbenzamide]
IC50 (c-Kit(V654A); Table 1, 200 μM ATP): 1.7 nM | IC50 [1, 2]: 110 nM

COCCOc1cc2[nH]nc(-c3cc(-c4ccc(C(=O)N5CCN(C)C[C@@H]5C)cc4)on3)c2cc1Cl [A10, 5-chloro-3-(5-{4-[(2S)-2,4-dimethylpiperazine-1-carbonyl]phenyl}-1,2-oxazol-3-yl)-6-(2-methoxyethoxy)-1H-indazole]
IC50 (c-Kit(V654A); Table 1, 200 μM ATP): 1.6 nM | IC50 [1, 2]: 180 nM

COCCOc1cc2[nH]nc(-c3cc(-c4ccc(C(=O)N5CCOC[C@H]5C)cc4)no3)c2cc1F [A114, 5-fluoro-6-(2-methoxyethoxy)-3-(3-{4-[(3R)-3-methylmorpholine-4-carbonyl]phenyl}-1,2-oxazol-5-yl)-1H-indazole]
IC50 (c-Kit(V654A); Table 1, 200 μM ATP): 0.91 nM | IC50 [1, 2]: 56 nM

COCCOc1cc2[nH]nc(-c3cc(-c4ccc(OCCN5CCS(=O)(=O)CC5)cc4)no3)c2cc1F [A132, 4-[2-(4-{5-[5-fluoro-6-(2-methoxyethoxy)-1H-indazol-3-yl]-1,2-oxazol-3-yl}phenoxy)ethyl]-1lambda6-thiomorpholine-1,1-dione]
IC50 (c-Kit(V654A); Table 1, 200 μM ATP): 1.6 nM | IC50 [1, 2]: 93 nM

COCCOc1cc2[nH]nc(-c3cc(-c4ccc(C(=O)N5CCN(C6COC6)C[C@H]5C)cc4)no3)c2cc1F [A190, 5-fluoro-6-(2-methoxyethoxy)-3-(3-{4-[(2R)-2-methyl-4-(oxetan-3-yl)piperazine-1-carbonyl]phenyl}-1,2-oxazol-5-yl)-1H-indazole]
IC50 (c-Kit(V654A); Table 1, 200 μM ATP): 1.6 nM | IC50 [1, 2]: 55 nM

COCCOc1cc2[nH]nc(-c3cc(-c4ccc(N5CCC(O)CC5)cc4)no3)c2cc1F [A128, 1-(4-{5-[5-fluoro-6-(2-methoxyethoxy)-1H-indazol-3-yl]-1,2-oxazol-3-yl}phenyl)piperidin-4-ol]
IC50 (c-Kit(V654A); Table 1, 200 μM ATP): 0.79 nM | IC50 [1, 2]: 100 nM

COCCOc1cc2[nH]nc(-c3cc(-c4ncc(C(=O)N(C)C)s4)no3)c2cc1F [A92, 2-{5-[5-fluoro-6-(2-methoxyethoxy)-1H-indazol-3-yl]-1,2-oxazol-3-yl}-N,N-dimethyl-1,3-thiazole-5-carboxamide]
IC50 (c-Kit(V654A); Table 1, 200 μM ATP): 55 nM | IC50 [1, 2]: 360 nM

COCCOc1cc2[nH]nc(-c3cc(-c4ccc(C(=O)N5CC6(CN(C)C6)C5)cc4)no3)c2cc1F [A88, 5-fluoro-6-(2-methoxyethoxy)-3-[3-(4-{6-methyl-2,6-diazaspiro[3.3]heptane-2-carbonyl}phenyl)-1,2-oxazol-5-yl]-1H-indazole]
IC50 (c-Kit(V654A); Table 1, 200 μM ATP): 2.3 nM | IC50 [1, 2]: 170 nM

[2H]C1([2H])N(C(=O)c2ccc(-c3cc(-c4n[nH]c5cc(OCCO)c(F)cc45)on3)cc2)C([2H])([2H])C([2H])([2H])N(C2COC2)C1([2H])[2H] [A234, 2-{[5-fluoro-3-(3-{4-[4-(oxetan-3-yl)(2,2,3,3,5,5,6,6-^2H8)piperazine-1-carbonyl]phenyl}-1,2-oxazol-5-yl)-1H-indazol-6-yl]oxy}ethan-1-ol]
IC50 (c-Kit(V654A); Table 1, 200 μM ATP): 0.9 nM | IC50 [1, 2]: 170 nM

COCCOc1cc2[nH]nc(-c3cc(-c4ccc(C(=O)N5CC[C@H]5CO)cc4)no3)c2cc1F [A95, [(2S)-1-(4-{5-[5-fluoro-6-(2-methoxyethoxy)-1H-indazol-3-yl]-1,2-oxazol-3-yl}benzoyl)azetidin-2-yl]methanol]
IC50 (c-Kit(V654A); Table 1, 200 μM ATP): 0.91 nM | IC50 [1, 2]: 37 nM

COCCOc1cc2[nH]nc(-c3cc(-c4ccc(S(C)(=N)=O)cc4)no3)c2cc1F (stereo not shown) [A226, (4-{5-[5-fluoro-6-(2-methoxyethoxy)-1H-indazol-3-yl]-1,2-oxazol-3-yl}phenyl)(imino)methyl-lambda6-sulfanone]
IC50 (c-Kit(V654A); Table 1, 200 μM ATP): 2 nM | IC50 [1, 2]: 150 nM

COc1cc2[nH]nc(-c3cc(-c4ccc(C(=O)N5CCN(C6COC6)CC5)cc4)no3)c2cc1F [A219, {4-[5-(5-Fluoro-6-methoxy-1H-indazol-3-yl)-isoxazol-3-yl]-phenyl}-(4-oxetan-3-yl-piperazin-1-yl)-methanone]
IC50 (c-Kit(V654A); Table 1, 200 μM ATP): 8 nM | IC50 [1, 2]: 280 nM

COCCOc1cc2[nH]nc(-c3cc(-c4ccc(C(=O)N5CC(c6ccncc6)C5)cc4)no3)c2cc1F [A120, 5-fluoro-6-(2-methoxyethoxy)-3-(3-{4-[3-(pyridin-4-yl)azetidine-1-carbonyl]phenyl}-1,2-oxazol-5-yl)-1H-indazole]
IC50 (c-Kit(V654A); Table 1, 200 μM ATP): 0.64 nM | IC50 [1, 2]: 24 nM

COCCOc1cc2[nH]nc(-c3cn(-c4ccc(C(=O)N5CC(c6ccncc6)C5)cc4)nn3)c2cc1F [reference compound]
IC50 (c-Kit(V654A); [3]): 2.6 nM | IC50 [1, 3]: 160 nM

COCCOc1cc2[nH]nc(-c3cc(-c4ccc(C(=O)N5C[C@H]6COCC[C@H]6C5)cc4)no3)c2cc1F (relative stereo) [A214, 3-(3-{4-[(cis)-octahydropyrano[3,4-c]pyrrole-2-carbonyl]phenyl}-1,2-oxazol-5-yl)-5-fluoro-6-(2-methoxyethoxy)-1H-indazole]
IC50 (c-Kit(V654A); Table 1, 200 μM ATP): 0.44 nM | IC50 [1, 2]: 37 nM

COCCOc1cc2[nH]nc(-c3cc(-c4ccc(S(C)(=O)=O)cc4)no3)c2cc1F [A16, 5-fluoro-3-[3-(4-methanesulfonylphenyl)-1,2-oxazol-5-yl]-6-(2-methoxyethoxy)-1H-indazole]
IC50 (c-Kit(V654A); Table 1, 200 μM ATP): 4.8 nM | IC50 [1, 2]: 94 nM

COCCOc1cc2[nH]nc(-c3cc(-c4ccc(C(=O)N(C)C)cc4)no3)c2cc1Cl [A12, 4-{5-[5-chloro-6-(2-methoxyethoxy)-1H-indazol-3-yl]-1,2-oxazol-3-yl}-N,N-dimethylbenzamide]
IC50 (c-Kit(V654A); Table 1, 200 μM ATP): 0.91 nM | IC50 [1, 2]: 160 nM

COCCOc1cc2[nH]nc(-c3cc(-c4ccc(C(=O)N5CCC[C@H]5CNS(C)(=O)=O)cc4)no3)c2cc1F [A90, N-{[(2S)-1-(4-{5-[5-fluoro-6-(2-methoxyethoxy)-1H-indazol-3-yl]-1,2-oxazol-3-yl}benzoyl)pyrrolidin-2-yl]methyl}methanesulfonamide]
IC50 (c-Kit(V654A); Table 1, 200 μM ATP): 0.47 nM | IC50 [1, 2]: 120 nM

COCCOc1cc2[nH]nc(-c3cc(-c4ccc(OCCN5CCNCC5)cc4)no3)c2cc1F [A134, 5-fluoro-6-(2-methoxyethoxy)-3-(3-{4-[2-(piperazin-1-yl)ethoxy]phenyl}-1,2-oxazol-5-yl)-1H-indazole]
IC50 (c-Kit(V654A); Table 1, 200 μM ATP): 1.5 nM | IC50 [1, 2]: 150 nM

COCCOc1cc2[nH]nc(-c3cc(-c4ccc(C(=O)N5CCN(C(CO)CO)CC5)cc4)no3)c2cc1F [A228, 2-[4-(4-{5-[5-fluoro-6-(2-methoxyethoxy)-1H-indazol-3-yl]-1,2-oxazol-3-yl}benzoyl)piperazin-1-yl]propane-1,3-diol]
IC50 (c-Kit(V654A); Table 1, 200 μM ATP): 570 nM | IC50 [1, 2]: 470 nM
